Measurements published in patent US20250257051A1, “SUBSTITUTED PYRIMIDINE COMPOUNDS AS TYK2 INHIBITORS” (1910 Genetics Inc., priority 2022, published 2025).
Structures can show the parent of a compound that is named as a salt.

biological target: human TYK2 (JH2domain-pseudokinase) (Homo sapiens (Human), UniProt P29597); assay: TYK2 JH2 Domain Binding Assay (KINOMEscan competition binding); settings: KINOMEscan; 11-point 3-fold dilution, top concentration 30,000 nM; Kd measurements in duplicate; read-out: TYK JH2 (Kd)
Sequence (P29597 556-888): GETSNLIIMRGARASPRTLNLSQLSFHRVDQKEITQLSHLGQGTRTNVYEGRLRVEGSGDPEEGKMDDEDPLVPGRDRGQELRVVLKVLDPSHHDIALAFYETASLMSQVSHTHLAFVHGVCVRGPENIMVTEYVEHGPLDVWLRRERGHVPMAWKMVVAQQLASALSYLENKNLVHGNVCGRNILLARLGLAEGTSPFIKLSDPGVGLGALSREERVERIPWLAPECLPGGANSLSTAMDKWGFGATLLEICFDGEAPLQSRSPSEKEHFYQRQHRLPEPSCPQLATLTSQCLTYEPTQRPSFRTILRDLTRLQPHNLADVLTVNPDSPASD
Protocol: Binding constants for compounds disclosed herein may be determined by the KINOMEscan® assay developed by DiscoveRx. KINOMEscan® is based on a competition binding assay that quantitatively measures the ability of a compound to compete with an immobilized, active-site directed ligand. The assay is performed by combining three components: DNA-tagged kinase; immobilized ligand; and a test compound. The ability of the test compound to compete with the immobilized ligand is measure via quantitative PCR of the DNA tag.
Binding constants for compounds disclosed herein against the JH2 domain are determined by the following protocol for a KINOMEscan® assay (DiscoveRx). A fusion protein of a partial length construct of human TYK2 (JH2domain-pseudokinase) (amino acids G556 to D888 based on reference sequence NP 003322.3) and the DNA binding domain of NFkB is expressed in transiently transfected HEK293 cells. From these HEK 293 cells, extracts are prepared in M-PER extraction buffer (Pierce) in the presence of Protease Inhibitor Cocktail Complete (Roche) and Phosphatase Inhibitor Cocktail Set II (Merck) per manufacturers' instructions. The TYK2 (JH2domain-pseudokinase) fusion protein is labeled with a chimeric double-stranded DNA tag containing the NFkB binding site (5′-GGGAATTCCC-3′) fused to an amplicon for qPCR readout, which is added directly to the expression extract (the final concentration of DNA-tag in the binding reaction is 0.1 nM).
Streptavidin-coated magnetic beads (Dynal M280) are treated with a biotinylated small molecule ligand for 30 minutes at room temperature to generate affinity resins for the binding assays. The liganded beads are blocked with excess biotin and washed with blocking buffer (SeaBlock (Pierce), 1% BSA, 0.05% Tween 20, 1 mM DTT) to remove unbound ligand and to reduce nonspecific binding.
Extracts are used directly in binding assays without any enzyme purification steps at a >10,000-fold overall stock dilution (final DNA tagged enzyme concentration<0.1 nM). Extracts are loaded with DNA-tag and diluted into the binding reaction in a two-step process. First extracts are diluted 1:100 in 1× binding buffer (PBS/0.05% Tween 20/10 mM DTT/0.1% BSA/[…] sonicated salmon sperm DNA) containing 10 nM DNA-tag. This dilution is allowed to equilibrate at room temperature for 15 minutes and then subsequently diluted 1:100 in 1× binding buffer. Test compounds are prepared as 111× stocks in 100% DMSO. Kds are determined using an 11-point 3-fold compound dilution series with three DMSO control points. All compounds for Kd measurements are distributed by acoustic transfer (non-contact dispensing) in 100% DMSO. The compounds are then diluted directly into the assays such that the final concentration of DMSO is 0.9%. All reactions performed in polypropylene 384-well plates. Each is a final volume of 0.02 mL. Assays are incubated with shaking for 1 hour at room temperature. Then the beads are pelleted and washed with wash buffer (lx PBS, 0.05% Tween 20) to remove displaced kinase and test compound. The washed beads are re-suspended in elution buffer (lx PBS, 0.05% Tween 20, 0.5 μM non-biotinylated affinity ligand) and incubated at room temperature with shaking for 30 minutes. The kinase concentration in the eluates is measured by qPCR. qPCR reactions are assembled by adding 2.5 μL of kinase eluate to 7.5 μL of qPCR master mix containing 0.15 μM amplicon primers and 0.15 μM amplicon probe. The qPCR protocol consists of a 10-minute hot start at 95° C., followed by 35 cycles of 95° C. for 15 seconds, 60° C. for 1 minute.
Test compounds are prepared as 111× stocks in 100% DMSO. Kds are determined using an 11-point 3-fold compound dilution series with three DMSO control points. All compounds for Kd measurements are distributed by acoustic transfer (non-contact dispensing) in 100% DMSO. The compounds are then diluted directly into the assays such that the final concentration of DMSO is 0.9%. […]

SMILES | Kd [nM]
CC(C)(C)OC(=O)N1CCCN(c2ncc(C(N)=O)c(Nc3ccc(C4CC4)nc3)n2)CC1 [Compound 47, Tert-Butyl 4-(S-carbamoyl-4-((6-cyclopropylpyridin-3-yl)amino)pyrimidin-2-yl)-1,4-diazepane-1-carboxylate] | 6700
CNC(=O)c1cnc(N2CCN(C(=O)OC(C)(C)C)CC2C)nc1Nc1ccccc1OC (stereo not drawn) [Compound 32, Tert-Butyl 4-(4-((2-methoxyphenyl)amino)-5-(methylcarbamoyl)pyrimidin-2-yl)-3-methylpiperazine-1-carboxylate] | 17000
CNC(=O)c1cnc(N2CCCN(C(=O)OC(C)(C)C)CC2)nc1Nc1ccccc1OC [Compound 30, Tert-Butyl 4-(4-((2-methoxyphenyl)amino)-5-(methylcarbamoyl)pyrimidin-2-yl)-1,4-diazepane-1-carboxylate] | 44000
CNC(=O)c1cnc(N2CCCNCC2)nc1Nc1ccccc1S(C)(=O)=O [Compound 67, 2-(1,4-diazepan-1-yl)-N-methyl-4-((2-(methylsulfonyl)phenyl)amino)pyrimidine-5-carboxamide hydrochloride] | 3400
CNC(=O)c1cnc(N2CCN(C(=O)OC(C)(C)C)CC2C)nc1Nc1cccc(-c2ncc(F)cn2)c1OC (stereo not drawn) [Compound 26, Tert-Butyl 4-(4-((3-(5-fluoropyrimidin-2-yl)-2-methoxyphenyl)amino)-5-(methylcarbamoyl)pyrimidin-2-yl)-3-methylpiperazine-1-carboxylate] | 190
CC1CN(C(=O)OC(C)(C)C)CCN1c1ncc(C(N)=O)c(Nc2ccc(C3CC3)nc2)n1 (stereo not drawn) [Compound 13, Tert-Butyl 4-(S-carbamoyl-4-((6-cyclopropylpyridin-3-yl)amino)pyrimidin-2-yl)-3-methylpiperazine-1-carboxylate] | 1000
COc1c(Nc2nc(N3CCN(C(C)=O)CC3C)ncc2C(N)=O)cccc1-c1ncc(F)cn1 (stereo not drawn) [Compound 60, 2-(4-acetyl-2-methylpiperazin-1-yl)-4-((3-(5-fluoropyrimidin-2-yl)-2-methoxyphenyl)amino)pyrimidine-5-carboxamide] | 2
CNC(=O)c1cnc(N2CCNCC2C)nc1Nc1ccccc1OC (stereo not drawn) [Compound 31, 4-((2-methoxyphenyl)amino)-N-methyl-2-(2-methylpiperazin-1-yl)pyrimidine-5-carboxamide Hydrochloride] | 4800
COc1c(Nc2nc(N3CCCNCC3)ncc2C(N)=O)cccc1-c1ncc(F)cn1 [Compound 73, 2-(1,4-diazepan-1-yl)-4-((3-(5-fluoropyrimidin-2-yl)-2-methoxyphenyl)amino)pyrimidine-5-carboxamide Hydrochloride] | 150
CC1CNCCN1c1ncc(C(N)=O)c(Nc2ccc(C3CC3)nc2)n1 (stereo not drawn) [Compound 12, 4-((6-cyclopropylpyridin-3-yl)amino)-2-(2-methylpiperazin-1-yl)pyrimidine-5-carboxamide] | 800
CNC(=O)c1cnc(N2CCCN(C(=O)OC(C)(C)C)CC2)nc1Nc1ccccc1S(C)(=O)=O [Compound 66, Tert-Butyl 4-(S-(methylcarbamoyl)-4-((2-(methylsulfonyl)phenyl)amino)pyrimidin-2-yl)-1,4-diazepane-1-carboxylate] | 6300
CNC(=O)c1cnc(N2CC[C@@H](C(=O)NC)C2)nc1Nc1ccc(C2CC2)nc1 [Compound 9, (R)-4-((6-cyclopropylpyridin-3-yl)amino)-N-methyl-2-(3-(methylcarbamoyl)pyrrolidin-1-yl)pyrimidine-5-carboxamide] | 240
CC1CNCCN1c1ncc(C(N)=O)c(Nc2ccccc2S(C)(=O)=O)n1 (racemic) [Compound 63, 2-(2-methylpiperazin-1-yl)-4-((2-(methylsulfonyl)phenyl)amino)pyrimidine-5-carboxamide hydrochloride] | 1400

Next, values leading:

Kd [nM] | SMILES
1300 | CNC(=O)c1cnc(N2CCCN(C(C)=O)CC2)nc1Nc1ccccc1S(C)(=O)=O [Compound 75, 2-(4-acetyl-1,4-diazepan-1-yl)-N-methyl-4-((2-(methylsulfonyl)phenyl)amino)pyrimidine-5-carboxamide]
1600 | CNC(=O)c1cnc(N2CCN(C(C)=O)CC2C)nc1Nc1ccccc1OC (stereo not drawn) [Compound 23, 2-(4-acetyl-2-methylpiperazin-1-yl)-4-((2-methoxyphenyl)amino)-N-methylpyrimidine-5-carboxamide]
360 | CNC(=O)c1cnc(N2CCCC2)nc1Nc1ccc(C(=O)N2CCOCC2)cc1 [Compound 8, N-methyl-4-((4-(morpholine-4-carbonyl)phenyl)amino)-2-(pyrrolidin-1-yl)pyrimidine-5-carboxamide]
3300 | COc1ccccc1Nc1nc(N2CCNCC2C)ncc1C(N)=O (stereo not drawn) [Compound 42, 4-((2-methoxyphenyl)amino)-2-(2-methylpiperazin-1-yl)pyrimidine-5-carboxamide hydrochloride]
21 | CCOC(=O)C1CCN(c2ncc(C(=O)NC)c(Nc3ccccc3S(C)(=O)=O)n2)CC1 [Compound 17, Ethyl 1-(5-(methylcarbamoyl)-4-((2-(methylsulfonyl)phenyl)amino)pyrimidin-2-yl)piperidine-4-carboxylate]
710 | NC(=O)c1cnc(N2CCC(C(=O)O)CC2)nc1Nc1ccc(C2CC2)nc1 [Compound 35, 1-(5-carbamoyl-4-((6-cyclopropylpyridin-3-yl)amino)pyrimidin-2-yl)piperidine-4-carboxylic acid]
270 | COc1ccccc1Nc1nc(N2CCN(C(C)=O)CC2C)ncc1C(N)=O (stereo not drawn) [Compound 59, 2-(4-acetyl-2-methylpiperazin-1-yl)-4-((2-methoxyphenyl)amino)pyrimidine-5-carboxamide]
8200 | CNC(=O)c1cnc(N2CCC(C(=O)O)CC2)nc1Nc1ccc(C2CC2)nc1 [Compound 19, 1-(4-((6-cyclopropylpyridin-3-yl)amino)-5-(methylcarbamoyl)pyrimidin-2-yl)piperidine-4-carboxylic acid]
19000 | COc1ccccc1Nc1nc(N2CCCN(C(=O)OC(C)(C)C)CC2)ncc1C(N)=O [Compound 41, Tert-Butyl 4-(5-carbamoyl-4-((2-methoxyphenyl)amino)pyrimidin-2-yl)-1,4-diazepane-1-carboxylate]
1.6 | CNC(=O)[C@H]1CCN(c2ncc(C(N)=O)c(Nc3cccc(-c4ncc(F)cn4)c3OC)n2)C1 [Compound 52, (S)-4-((3-(5-fluoropyrimidin-2-yl)-2-methoxyphenyl)amino)-2-(3-(methylcarbamoyl)pyrrolidin-1-yl)pyrimidine-5-carboxamide]
34 | COc1c(Nc2nc(N3CCN(C(=O)OC(C)(C)C)CC3C)ncc2C(N)=O)cccc1-c1ncc(F)cn1 (stereo not drawn) [Compound 37, Tert-Butyl 4-(5-carbamoyl-4-((3-(5-fluoropyrimidin-2-yl)-2-methoxyphenyl)amino)pyrimidin-2-yl)-3-methylpiperazine-1-carboxylate]
180 | CNC(=O)c1cnc(N2CCNCC2C)nc1Nc1cccc(-c2ncc(F)cn2)c1OC (stereo not drawn) [Compound 25, 4-((3-(5-fluoropyrimidin-2-yl)-2-methoxyphenyl)amino)-N-methyl-2-(2-methylpiperazin-1-yl)pyrimidine-5-carboxamide Hydrochloride]
800 | CNC(=O)c1cnc(N2CCCNCC2)nc1Nc1cccc(-c2ncc(F)cn2)c1OC [Compound 74, 2-(1,4-diazepan-1-yl)-4-((3-(5-fluoropyrimidin-2-yl)-2-methoxyphenyl)amino)-N-methylpyrimidine-5-carboxamide Hydrochloride]

same assay, conditions: Table 4: pyrimidinyl compound of Formula I versus compounds with a different heteroaryl core; read-out: TYK JH2 (Kd)

Kd [nM] | SMILES
10000 | CNC(=O)c1cnc(N2CCC(C(=O)NC)C2)cc1Nc1ccc(C2CC2)nc1 (stereo not drawn) [reference compound]
